Reference: patent US10772858B2, “Benzhydrol derivatives for the management of conditions related to hypoxia inducible factors” (GEORGIA STATE UNIVERSITY RESEARCH FOUNDATION, priority 2015, dated 2020)

Columns and labels:
[1] = tested on: LN229HRE-luc/lacZ cells (VEGF HRE, HIF-1 target); assay: Inhibition of hypoxia-inducible gene expression driven by HRE-reporter construct (firefly luciferase) in glioma cells; format: cell-based; details: Homo sapiens, Glioma cell; firefly luciferase activity in LN229HRE-luc/LacZ cells, 1 hour pretreatment under normoxia, then hypoxia (1% O2); from dose-response curves
Method: Inhibition of Hypoxia-Inducible Gene Expression Driven by Exogenous HRE-Reporter Constructs in Glioma Cells
LN229HRE-luc/lacZ cells were generated by stably transfecting human LN229 glioma cells with a bidirectional reporter construct (pBIGL-V6R) in which the firefly luciferase and LacZ reporter genes are under the control of 6 head to tail tandem copies of the VEGF HRE (hypoxia-responsive element—endogenous HIF-1 target gene) in rightward orientation (clone LN229V6R#18; Hygro selection […]) as reported in Yin et al. Clinical Cancer Research, 2012, 1-11.
Cells were pretreated with different doses of test compounds or 1% DMSO (final concentration in media) vehicle control for 1 hour under normoxia (21% O2); then incubation continued under normoxia or hypoxia (1% O2) using a hypoxia incubator (Thermo Forma model 3130). Firefly luciferase activities in lysates of LN229HRE-luc/LacZ cells were measured with a Dual-Luciferase Reporter Assay System (Promega) in a 20/20 n Luminometer (Promega). The IC50 (μM) value for each individual compound was established from the dose-response curves.

mitochondrial complex I = details: cited from earlier work
HIF-1α = details: cited from earlier work
H460 xenograft = H460 xenograft model; cited from earlier work
[2] = target: mitochondrial Complex I (NADH:ubiquinone oxidoreductase); assay: MitoCheck Complex I activity assay (Cayman Chemicals #700930); format: biochemical
Source text: Complex I (NADH:ubiquinone oxidoreductase or NADH dehydrogenase (ubiquinone)) is a complex of enzymes of the respiratory chains that catalyzes the transfer of electrons from NADH to coenzyme Q10 (CoQ10) located in the inner mitochondrial membrane. […] Cancer Medicine, 2013, 2(5): 611-624. […] Interference with mitochondrial function to reduce hypoxia-induced HIF-1 activity in tumors is indicated as a therapeutic approach to overcome chemo- and radiotherapy resistance of hypoxic tumors. Helbig et al. report BAY 87-2243 improves local tumor control after fractionated irradiation in a schedule-dependent manner in head and neck human xenografts. Radiation Oncology 2014, 9:207. Santidrian et al. report mitochondrial complex I activity and NAD+/NADH balance regulate breast cancer progression. J Clin Invest, 2013, 123(3):1068-81. See also Ellinghaus et al., Cancer Med, 2013, 2(5):611-624. Chang et al., Clin Cancer Res, 2015, 21(2):335-46; Fulda et al., Antioxid Redox Signal, 2011, 15:2937-2949; Wenner, J Cell Physiol, 2012, 227:450-456; Fulda et al., Nat Rev Drug Discov, 2010, 9:447-464.
It has been discovered that certain HIF inhibitors disclosed herein are also mitochondrial inhibitors. […] KCN1 induced acidification of media may be due to the consequence of its mitochondrial inhibiting activity. […]

LN229 cells = assay: Toxicity to LN229 cells in the presence of galactose; format: cell-based, human
Source text: To be metabolized, galactose has to be converted into glucose in an energy consuming process that cannot be balanced by glycolytic metabolism. […] KCN1 is toxic to LN229 cells in the presence of galactose. […] Thus, in certain embodiments, the disclosure contemplates administering compounds disclosed herein in combination with a restricted or low glucose diet optionally in combination with galactose.

cell culture media = assay: Acidification of cell culture media (lactate production); format: cell-based; details: due to increased lactate production
Source text: It has been discovered that certain HIF inhibitors disclosed herein are also mitochondrial inhibitors. […] KCN1 induced acidification of media may be due to the consequence of its mitochondrial inhibiting activity. Inhibiting the mitochondrial complex I interferes with the normal functions of the electron transport chain. This in effect can damage DNA and specific components of the mitochondria which leads to cell death through the generation of reactive oxygen species.

| Compound | IC50 [1] [µM] | further results |
| --- | --- | --- |
| CCCCCOc1ccc(C(O)c2ccc(OC)c(OC)c2)c(F)c1 (stereo not drawn) [35b] | 1.3 | – |
| CCCCCOc1ccc(C(O)c2ccc(OC)c(OC)c2)c(C)c1 (stereo not drawn) [35c] | 0.43 | – |
| COc1ccc(C(O)c2ccc(OCC3CCN(C(=O)OC(C)(C)C)CC3)cc2C)cc1OC (stereo not drawn) [35d] | 0.33 | – |
| COc1ccc(C(O)c2ccc(OCCC3CCN(C(=O)OC(C)(C)C)CC3)cc2C)cc1OC (stereo not drawn) [35e, Tert-butyl 4-(2-(4-((3,4-dimethoxyphenyl)(hydroxy)methyl)-3-methylphenoxy)ethyl)piperidine-1-carboxylate] | 0.27 | – |
| COc1cc(C(O)c2ccc(OCC3CCN(C(=O)OC(C)(C)C)CC3)cc2C)cc(OC)c1OC (stereo not drawn) [35f] | 0.27 | – |
| COc1cc(C(O)c2ccc(OCCC3CCN(C(=O)OC(C)(C)C)CC3)cc2C)cc(OC)c1OC (stereo not drawn) [35g, Tert-butyl 4-(2-(4-(hydroxy(3,4,5-trimethoxyphenyl)methyl)-3-methylphenoxy)ethyl)piperidine-1-carboxylate] | 0.27 | – |
| COc1ccc(C(=O)c2ccc(C[C@H]3CCOC3)cc2)cc1OC [36c] | > 5 | – |
| COc1ccc(C(=O)c2ccc(N3CCOCC3)cc2)cc1OC [36d] | > 5 | – |
| COc1ccc(C(=O)c2ccc3c(c2)C=CC(C)(C)O3)cc1OC [36e] | > 5 | – |
| COc1ccc(C(=O)c2cccc(COC3CCN(C(=O)OC(C)(C)C)CC3)c2)cc1OC [36f] | > 5 | – |
| COc1ccc(C(=O)c2ccc(COC3CCN(C(=O)OC(C)(C)C)CC3)cc2)cc1OC [36g] | 4.5 | – |
| COc1ccc(C(=O)c2ccc3c(n2)C=CC(C)(C)O3)cc1OC [36h] | > 5 | – |
| Cc1cc(-c2nc(-c3ccc(OC(F)(F)F)cc3)no2)nn1Cc1ccnc(N2CCN(C3CC3)CC2)c1 [BAY 87-2243] | – | mitochondrial complex I activity inhibition (mitochondrial complex I): inhibits mitochondrial complex I activity; HIF-1α inhibition (HIF-1α): inhibits HIF-1α; antitumor activity in vivo (H460 xenograft): Antitumor activity of BAY 87-2243 in vivo was demonstrated |
| COc1ccc(S(=O)(=O)N(Cc2ccc3c(c2)C=CC(C)(C)O3)c2ccccc2)cc1OC [KCN1] | – | IC50 [2]: ~15 µM; toxicity to LN229 cells (LN229 cells): toxic; acidification of cell culture media (cell culture media): strongly acidifies cell culture media |
